For data set [1], the system named is severe acute RS-CoV 3CL^pr°. The settings on record: inhibition of severe acute RS-CoV 3CL^pr° activity; cited from earlier work.
The next data set in a line: in vitro. The settings on record: African green monkey.
In a further data set the test system is SARS-CoV-2. As to the kind of experiment: microbe, parasite or virus in culture. The data set is classed as cell-based.

The text below walks through data of article PMC9696309 (Metabolites, 2022).

The structures appear in SMILES notation. Where two headings read alike, the source gives them in different places.

Regarding `O=c1cc(-c2ccc(O)cc2)oc2cc(O)cc(O)c12` [apigenin], in data set [1], the IC50 was 281 µM.
On to `CC[C@H](CC[C@@H](C)[C@H]1CC[C@H]2[C@@H]3CC=C4C[C@@H](O[C@@H]5O[C@H](CO)[C@@H](O)[C@H](O)[C@H]5O)CC[C@]4(C)[C@H]3CC[C@]12C)C(C)C` [Compound 9, daucosterol], for which, in “in vitro”, the CC50 turned out to be 2550 µM.
Compound `COc1c(O)cc2oc(-c3ccc(O)cc3)c(OC)c(=O)c2c1O` [Compound 7, 5,7,4’-trihydroxy-3,6-dimethoxy flavone] gave a CC50 in the data set “in vitro” of 1070 µM. Besides, the IC50 in the data set with SARS-CoV-2 and in the data set with SARS-CoV-2 (Severe acute respiratory syndrome coronavirus 2) was 664 µM throughout.
Consider `O=c1cc(-c2ccc(O)c(O)c2)oc2cc(O)cc(O)c12` [luteolin], for which the half-maximal inhibitory concentration (IC50) in data set [1] was 20.2 µM.
`COc1ccc(-c2coc3cc(O)ccc3c2=O)cc1` [Compound 3, formononetin] displayed a CC50 in “in vitro” of 1720 µM.
